Patent US12522601B2, “1,3,4-oxadiazole derivative compounds as histone deacetylase 6 inhibitor, and the pharmaceutical composition comprising the same” (CHONG KUN DANG PHARMACEUTICAL CORP., priority 2020, dated 2026)

Tests used:
human recombinant HDAC1 = biological target: T1, human recombinant HDAC1 (Homo sapiens, UniProt Q13547); assay: In vitro HDAC enzyme activity inhibition assay, HDAC1 (HDAC Fluorimetric Drug Discovery Kit); assay type: biochemical; conditions: human recombinant HDAC1, Fluor de Lys-SIRT1 substrate 10 μM, 30° C. for 60 minutes
T1 construct: purchased Enzo Life Sciences, Inc. BML-SE456
T1 sequence (Q13547 whole entry): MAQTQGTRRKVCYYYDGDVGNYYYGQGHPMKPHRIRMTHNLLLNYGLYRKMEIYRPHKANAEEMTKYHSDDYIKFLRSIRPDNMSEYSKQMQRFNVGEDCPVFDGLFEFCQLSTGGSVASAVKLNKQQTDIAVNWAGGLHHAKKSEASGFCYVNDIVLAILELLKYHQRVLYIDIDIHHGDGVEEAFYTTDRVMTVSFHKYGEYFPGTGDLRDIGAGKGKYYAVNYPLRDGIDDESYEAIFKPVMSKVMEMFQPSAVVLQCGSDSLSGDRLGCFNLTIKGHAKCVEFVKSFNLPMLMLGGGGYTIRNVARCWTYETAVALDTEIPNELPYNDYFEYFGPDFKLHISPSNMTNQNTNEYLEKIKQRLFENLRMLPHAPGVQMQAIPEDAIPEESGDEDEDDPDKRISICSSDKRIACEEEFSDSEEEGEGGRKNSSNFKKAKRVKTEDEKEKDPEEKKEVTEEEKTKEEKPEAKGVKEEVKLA
Outline: (§1)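 Fluorimetric deacetylase kit; 0.3 μg human recombinant enzyme with 10 μM Fluor de Lys-SIRT1 substrate, 60 min at 30° C, then developer 30 min. Fluorescence read at Ex 360/Em 460; IC50 from 5-fold compound dilutions. HDAC1 and HDAC6 run by the same protocol.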

human recombinant HDAC6 = biological target: T2, human recombinant HDAC6 (Homo sapiens, UniProt Q9UBN7); assay: In vitro HDAC enzyme activity inhibition assay, HDAC6 (HDAC Fluorimetric Drug Discovery Kit); assay type: biochemical; conditions: for HDAC6 Selectivity (fold): HDAC6 versus HDAC1; for IC50: human recombinant HDAC6, same protocol as the HDAC1 test
T2 construct: purchased Calbiochem Inc. 382180
T2 sequence (Q9UBN7 1-1215): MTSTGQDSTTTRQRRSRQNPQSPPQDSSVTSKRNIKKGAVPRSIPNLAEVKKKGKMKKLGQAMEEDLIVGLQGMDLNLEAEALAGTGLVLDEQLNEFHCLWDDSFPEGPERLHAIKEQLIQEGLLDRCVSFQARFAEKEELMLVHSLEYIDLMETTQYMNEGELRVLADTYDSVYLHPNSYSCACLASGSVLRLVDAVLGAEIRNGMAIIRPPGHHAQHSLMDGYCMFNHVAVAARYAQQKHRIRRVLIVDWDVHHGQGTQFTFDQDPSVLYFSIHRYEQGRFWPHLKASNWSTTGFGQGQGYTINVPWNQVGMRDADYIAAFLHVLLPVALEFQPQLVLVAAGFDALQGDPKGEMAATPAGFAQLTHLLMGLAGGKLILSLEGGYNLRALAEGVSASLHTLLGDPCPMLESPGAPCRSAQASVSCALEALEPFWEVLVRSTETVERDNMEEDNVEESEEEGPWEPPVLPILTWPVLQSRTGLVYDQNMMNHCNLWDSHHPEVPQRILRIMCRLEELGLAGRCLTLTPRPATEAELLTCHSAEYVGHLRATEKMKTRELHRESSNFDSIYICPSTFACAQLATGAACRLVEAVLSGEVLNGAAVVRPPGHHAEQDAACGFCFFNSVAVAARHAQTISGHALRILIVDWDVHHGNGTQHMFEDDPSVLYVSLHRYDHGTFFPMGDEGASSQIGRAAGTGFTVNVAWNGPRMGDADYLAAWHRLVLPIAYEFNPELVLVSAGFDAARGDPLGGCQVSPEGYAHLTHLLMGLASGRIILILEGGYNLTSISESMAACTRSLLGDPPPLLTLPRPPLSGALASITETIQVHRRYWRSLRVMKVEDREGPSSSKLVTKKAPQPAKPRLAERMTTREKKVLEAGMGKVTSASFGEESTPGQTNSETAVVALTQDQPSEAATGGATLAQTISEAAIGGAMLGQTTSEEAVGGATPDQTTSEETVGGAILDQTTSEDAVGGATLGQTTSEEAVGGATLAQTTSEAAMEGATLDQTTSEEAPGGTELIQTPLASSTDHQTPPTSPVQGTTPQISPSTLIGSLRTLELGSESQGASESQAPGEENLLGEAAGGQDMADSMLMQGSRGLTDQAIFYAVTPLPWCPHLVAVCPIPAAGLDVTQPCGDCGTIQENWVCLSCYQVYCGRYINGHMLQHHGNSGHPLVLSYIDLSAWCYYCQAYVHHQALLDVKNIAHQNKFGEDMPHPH
Outline: as §1

IC50 (human recombinant HDAC1) [µM]	HDAC6 Selectivity (fold) (human recombinant HDAC6)	IC50 (human recombinant HDAC6) [nM]	Compound
> 50	113	443	O=C(N1CCN(C2CCCCC2)CC1)N(Cc1cn2ccc(-c3nnc(C(F)F)o3)cc2n1)c1cccc(F)c1 [Compound 4089, 4-cyclohexyl-N-((7-(5-(difluoromethyl)-1,3,4-oxadiazol-2-yl)imidazo[1,2-a]pyridin-2-yl)methyl)-N-(3-fluorophenyl)piperazine-1-carboxamide]
> 50	338	148	O=C(N1CCN(C2CCC(F)(F)CC2)CC1)N(Cc1cn2ccc(-c3nnc(C(F)F)o3)cc2n1)c1ccccc1 [Compound 4039, 4-(4,4-difluorocyclohexyl)-N-((7-(5-(difluoromethyl)-1,3,4-oxadiazol-2-yl)imidazo[1,2-a]pyridin-2-yl)methyl)-N-phenylpiperazine-1-carboxamide]
> 50	151	330	Fc1ccc(Cc2cn3ccc(-c4nnc(C(F)F)o4)cc3n2)cc1 [Compound 3586, 2-(difluoromethyl)-5-(2-(4-fluorobenzyl)imidazo[1,2-a]pyridin-7-yl)-1,3,4-oxadiazole]
> 50	121	413	O=C(C1CN(C2CCOCC2)C1)N(Cc1cn2ccc(-c3nnc(C(F)F)o3)cc2n1)c1ccccc1 [Compound 4165, N-((7-(5-(difluoromethyl)-1,3,4-oxadiazol-2-yl)imidazo[1,2-a]pyridin-2-yl)methyl)-N-phenyl-1-(tetrahydro-2H-pyran-4-yl) azetidine-3-carboxamide]
> 50	123	406	CC(=O)c1cccc(OCc2cn3ccc(-c4nnc(C(F)F)o4)cc3n2)c1 [Compound 3721, 1-(3-((7-(5-(difluoromethyl)-1,3,4-oxadiazol-2-yl)imidazo[1,2-a]pyridin-2-yl)methoxy)phenyl)ethan-1-one]
> 50	21.2	2360	CC(C)(C)OC(=O)N1CCN(C(=O)N(Cc2cn3ccc(-c4nnc(C(F)(F)F)o4)cc3n2)c2cccc(F)c2)CC1 [Compound 6892, tert-butyl 4-((3-fluorophenyl) ((7-(5-(trifluoromethyl)-1,3,4-oxadiazol-2-yl)imidazo[1,2-a]pyridine-2-yl)methyl)carbamoyl)piperazine-1-carboxylate]
> 50	308	162	O=C(C1CCN(C2CC3(CCC3)C2)CC1)N(Cc1cn2ccc(-c3nnc(C(F)F)o3)cc2n1)c1cccc(F)c1 [Compound 4618, N-((7-(5-(difluoromethyl)-1,3,4-oxadiazol-2-yl)imidazo[1,2-a]pyridin-2-yl)methyl)-N-(3-fluorophenyl)-1-(spiro[3.3]heptan-2-yl)piperidine-4-carboxamide]
> 50	82	612	O=C(C1CCN(C(=O)C(F)(F)F)CC1)N(Cc1cn2ccc(-c3nnc(C(F)F)o3)cc2n1)c1ccccc1 [Compound 4127, N-((7-(5-(difluoromethyl)-1,3,4-oxadiazol-2-yl)imidazo[1,2-a]pyridin-2-yl)methyl)-N-phenyl-1-(2,2,2-trifluoroacetyl)piperidine-4-carboxamide]
> 50	89	564	CC(C)c1cccc(Cc2cn3ccc(-c4nnc(C(F)F)o4)cc3n2)c1 [Compound 3594, 2-(difluoromethyl)-5-(2-(3-isopropylbenzyl)imidazo[1,2-a]pyridin-7-yl)-1,3,4-oxadiazole]
> 50	142	353	CC(=O)N1CCC(C(=O)N(Cc2cn3ccc(-c4nnc(C(F)F)o4)cc3n2)c2ccccc2)CC1 [Compound 4122, 1-acetyl-N-((7-(5-(difluoromethyl)-1,3,4-oxadiazol-2-yl)imidazo[1,2-a]pyridin-2-yl)methyl)-N-phenylpiperidine-4-carboxamide]
